Laboratory results as given in patent US7414048B2, “4,5-dihydro-isoxazole derivatives and their pharmaceutical use” (Janssen Pharmaceutica, N.V., priority 1998, dated 2008).

Test system: T cell blast formation in human blood
Assay: In vitro inhibition of T cell blast formation in human blood (human whole blood blast formation, PHA stimulated, flow cytometry)
Type: cell-based
Details: Test Dose 1 × 10^−5 (unit not given), 72 hours, mean where multiple measurements
Method: Cells are collected after a 72 hours culture period at 37° C., supernatant is removed by centrifugation and red blood cells are lysed by a hypotonic buffer. The remaining white blood cells are collected in PBS containing propidium iodide. The blast formation is analyzed using a benchtop flow cytometer (Cytoron, Ortho) equipped with an argon-ion laser. […] When multiple measurements were performed, a mean value was calculated for the percentage inhibition of T cell blast formation.

Compound | % Inhibition of T cell blast formation
O=C(Nc1cccc2ccccc12)c1ccc(NC(=O)C2CC(c3cccnc3)=NO2)cc1 (centres unmarked) [Compound 266] | 85%
O=C(Nc1ccc(Sc2ccccc2)cc1)C1CC(c2cccnc2)=NO1 (centres unmarked) [Compound 374] | 85%

Same assay, conditions: Test Dose 1 × 10^−6 (unit not given), 72 hours, mean where multiple measurements

Compound | % Inhibition of T cell blast formation
O=C(Nc1ccc(C(c2ccccc2)N2CCOCC2)cc1)C1CC(c2cccnc2)=NO1 (centres unmarked) [Compound 221] | 63%
O=C(NCCc1ccccc1)c1ccc(NC(=O)C2CC(c3cccnc3)=NO2)cc1 (centres unmarked) [Compound 258] | 59%
CC(C)(NC(=O)c1ccc(NC(=O)C2CC(c3cccnc3)=NO2)cc1)c1ccccc1 (centres unmarked) [Compound 259] | 51%
O=C(Nc1cccnc1)c1ccc(NC(=O)C2CC(c3cccnc3)=NO2)cc1 (centres unmarked) [Compound 263] | 59%
O=C(NCCc1ccco1)c1ccc(NC(=O)C2CC(c3cccnc3)=NO2)cc1 (centres unmarked) [Compound 268] | 58%
O=C(NCc1ccccc1Br)c1ccc(NC(=O)C2CC(c3cccnc3)=NO2)cc1 (centres unmarked) [Compound 269] | 67%
O=C(NCc1ccc(F)cc1)c1ccc(NC(=O)C2CC(c3cccnc3)=NO2)cc1 (centres unmarked) [Compound 270] | 71%
COc1cccc(CNC(=O)c2ccc(NC(=O)C3CC(c4cccnc4)=NO3)cc2)c1 (centres unmarked) [Compound 272] | 67%
Cc1ccc(CNC(=O)c2ccc(NC(=O)C3CC(c4cccnc4)=NO3)cc2)cc1 (centres unmarked) [Compound 273] | 62%
COc1ccc(CNC(=O)c2ccc(NC(=O)C3CC(c4cccnc4)=NO3)cc2)c(OC)c1 (centres unmarked) [Compound 274] | 71%
O=C(NCc1c(F)cccc1F)c1ccc(NC(=O)C2CC(c3cccnc3)=NO2)cc1 (centres unmarked) [Compound 279] | 74%
COc1cc(CNC(=O)c2ccc(NC(=O)C3CC(c4cccnc4)=NO3)cc2)cc(OC)c1OC (centres unmarked) [Compound 281] | 74%
COc1ccccc1CNC(=O)c1ccc(NC(=O)C2CC(c3cccnc3)=NO2)cc1 (centres unmarked) [Compound 285] | 72%
O=C(NCc1cccc(C(F)(F)F)c1)c1ccc(NC(=O)C2CC(c3cccnc3)=NO2)cc1 (centres unmarked) [Compound 288] | 53%
O=C(NCc1cccs1)c1ccc(NC(=O)C2CC(c3cccnc3)=NO2)cc1 (centres unmarked) [Compound 289] | 64%
COc1ccc(CNC(=O)c2ccc(NC(=O)C3CC(c4cccnc4)=NO3)cc2)cc1 (centres unmarked) [Compound 290] | 67%
O=C(NCc1cnc2ccccc2c1)c1ccc(NC(=O)C2CC(c3cccnc3)=NO2)cc1 (centres unmarked) [Compound 291] | 78%
CON=C(c1ccccc1)c1ccc(NC(=O)C2CC(c3cccnc3)=NO2)cc1 (centres unmarked) [Compound 303] | 78%
NC(=O)C(c1ccc(Cl)cc1)c1ccc(NC(=O)C2CC(c3cccnc3)=NO2)cc1Cl (centres unmarked) [Compound 309] | 92%
NC(=O)C(c1ccccc1)c1ccc(NC(=O)C2CC(c3cccnc3)=NO2)cc1 (centres unmarked) [Compound 312] | 93%

Compound | % Inhibition of T cell blast formation
O=C(c1ccccc1)c1ccc(NC(=O)C2CC(c3cccnc3)=NO2)nc1 (centres unmarked) [Compound 371] | 62%
O=C(Nc1ccc(Nc2ccccc2)cc1)C1CC(c2cccnc2)=NO1 (centres unmarked) [Compound 377] | 85%
O=C(CCc1ccccc1)c1ccc(NC(=O)C2CC(c3cccnc3)=NO2)cc1 (centres unmarked) [Compound 380] | 67%
COc1ccccc1C(=O)c1ccc(NC(=O)C2CC(c3cccnc3)=NO2)cc1 (centres unmarked) [Compound 390] | 85%
O=C(c1ccc(NC(=O)C2CC(c3cccnc3)=NO2)cc1)c1ccc2ccccc2n1 (centres unmarked) [Compound 392] | 80%
O=C(c1ccc(NC(=O)C2CC(c3cccnc3)=NO2)cc1)c1cnc2ccccc2c1 (centres unmarked) [Compound 393] | 69%
COc1ccc(OC)c(C(=O)c2ccc(NC(=O)C3CC(c4cccnc4)=NO3)cc2)c1 (centres unmarked) [Compound 395] | 77%
COc1cc(C(=O)c2ccc(NC(=O)C3CC(c4cccnc4)=NO3)cc2)cc(OC)c1OC (centres unmarked) [Compound 396] | 65%
COc1cccc(OC)c1C(=O)c1ccc(NC(=O)C2CC(c3cccnc3)=NO2)cc1 (centres unmarked) [Compound 397] | 82%
O=C(c1ccc(NC(=O)C2CC(c3cccnc3)=NO2)cc1)c1ccc(F)cc1F (centres unmarked) [Compound 398] | 87%
CC(O)(c1ccccc1)c1ccc(NC(=O)C2CC(c3cccnc3)=NO2)cc1 (centres unmarked) [Compound 411, (A2)-4,5-dihydro-N-[4-(1-hydroxy-1-phenylethyl)phenyl]-3-(3-pyridinyl)-5-isoxazolecarboxamide] | 77%
CC(=O)OCC(C#N)(c1ccccc1)c1ccc(NC(=O)C2CC(c3cccnc3)=NO2)cc1 (centres unmarked) [Compound 413] | 85%
N#CC(OC(=O)c1ccccc1)(c1ccccc1)c1ccc(NC(=O)C2CC(c3cccnc3)=NO2)cc1 (centres unmarked) [Compound 415] | 65%
COCCOC(c1ccccc1)c1ccc(NC(=O)C2CC(c3cccnc3)=NO2)cc1 (centres unmarked) [Compound 416] | 87%
CCCCOC(c1ccccc1)c1ccc(NC(=O)C2CC(c3cccnc3)=NO2)cc1.Cl (centres unmarked) [Compound 417] | 42%
CC(C)OC(c1ccccc1)c1ccc(NC(=O)C2CC(c3cccnc3)=NO2)cc1.Cl (centres unmarked) [Compound 418] | 75%
CN(C)C(=O)c1ccc(CNC(=O)c2ccc(NC(=O)C3CC(c4cccnc4)=NO3)cc2)cc1 (centres unmarked) [Compound 426] | 82%
CNC(=O)c1ccc(CNC(=O)c2ccc(NC(=O)C3CC(c4cccnc4)=NO3)cc2)cc1 (centres unmarked) [Compound 427] | 80%
O=C(Nc1ccc(C(=NO)c2ccc3c(c2)OCO3)cc1)C1CC(c2cccnc2)=NO1 (centres unmarked) [Compound 429] | 86%
O=C(Nc1ccc(C(=NO)c2cnc3ccccc3c2)cc1)C1CC(c2cccnc2)=NO1 (centres unmarked) [Compound 432] | 65%

Same assay, conditions: Test Dose 1 × 10^−7 (unit not given), 72 hours, mean where multiple measurements

Compound | % Inhibition of T cell blast formation
O=C(c1ccncc1)c1ccc(NC(=O)C2CC(c3cccnc3)=NO2)cc1 (centres unmarked) [Compound 388] | 74%
O=C(Nc1ccc(C(=NO)c2ccncc2)cc1)C1CC(c2cccnc2)=NO1 (centres unmarked) [Compound 428] | 57%
COc1ccccc1C(=NO)c1ccc(NC(=O)C2CC(c3cccnc3)=NO2)cc1 (centres unmarked) [Compound 434] | 83%
O=C(Nc1ccc(C(=NO)c2ccc(F)cc2F)cc1)C1CC(c2cccnc2)=NO1 (centres unmarked) [Compound 435] | 81%

Same assay, conditions: Test Dose 3 × 10^−7 (unit not given), 72 hours, mean where multiple measurements

Compound | % Inhibition of T cell blast formation
CN(C)c1ccc(CNC(=O)c2ccc(NC(=O)C3CC(c4cccnc4)=NO3)cc2)cc1 (centres unmarked) [Compound 286] | 49%
Nc1cccc(F)c1CNC(=O)c1ccc(NC(=O)C2CC(c3cccnc3)=NO2)cc1 (centres unmarked) [Compound 292] | 40%
O=C(NCc1ccc2c(c1)OCO2)c1ccc(NC(=O)C2CC(c3cccnc3)=NO2)cc1 (centres unmarked) [Compound 295] | 35%
O=C(Nc1ccc(C(=O)N2CCC(O)(Cc3ccccc3)CC2)cc1)C1CC(c2cccnc2)=NO1 (centres unmarked) [Compound 304] | 36%
O=C(Nc1ccc(C(=O)N2CCC(c3ccccc3)CC2)cc1)C1CC(c2cccnc2)=NO1 (centres unmarked) [Compound 307] | 41%
NC(=O)C(c1ccc(Cl)cc1Cl)c1ccc(NC(=O)C2CC(c3cccnc3)=NO2)cc1Cl (centres unmarked) [Compound 310] | 64%
CN(C)Cc1csc(NC(=O)C(c2ccccc2)c2ccc(NC(=O)C3CC(c4cccnc4)=NO3)cc2)n1 (centres unmarked) [Compound 314] | 58%
O=C(Nc1ccc(C(C(=O)NCCN2CCOCC2)c2ccccc2)cc1)C1CC(c2cccnc2)=NO1 (centres unmarked) [Compound 325] | 43%
O=C(Nc1ccc(Nc2ccc(S(=O)(=O)C(F)(F)F)cc2)cc1)C1CC(c2cccnc2)=NO1 (centres unmarked) [Compound 376] | 69%
O=C(Nc1ccc(C(=O)N2CCN(c3ccccc3)CC2)cc1)C1CC(c2cccnc2)=NO1 (centres unmarked) [Compound 379] | 51%
O=C(c1ccc(NC(=O)C2CC(c3cccnc3)=NO2)cc1)c1ccc(OC(F)(F)F)cc1 (centres unmarked) [Compound 384] | 68%
O=C(c1ccc(NC(=O)C2CC(c3cccnc3)=NO2)cc1)c1c(F)cccc1F (centres unmarked) [Compound 385] | 69%
Cn1cc(C(=O)c2ccc(NC(=O)C3CC(c4cccnc4)=NO3)cc2)cn1 (centres unmarked) [Compound 386] | 38%
O=C(c1ccc(NC(=O)C2CC(c3cccnc3)=NO2)cc1)c1cccnc1 (centres unmarked) [Compound 387] | 78%
O=C(c1ccc(NC(=O)C2CC(c3cccnc3)=NO2)cc1)c1ccc2c(c1)OCO2 (centres unmarked) [Compound 389] | 59%
O=C(Nc1ccc(C(O)c2ccncc2)cc1)C1CC(c2cccnc2)=NO1 (centres unmarked) [Compound 407] | 63%
O=C(Nc1ccc(C(O)c2ccc(F)cc2F)cc1)C1CC(c2cccnc2)=NO1 (centres unmarked) [Compound 408] | 71%
COc1ccccc1C(O)c1ccc(NC(=O)C2CC(c3cccnc3)=NO2)cc1 (centres unmarked) [Compound 409] | 88%
O=C(Nc1ccc(C(O)c2ccccc2)cc1)[C@@H]1CC(c2cccnc2)=NO1 (some centres unmarked) [Compound 412] | 79%
CN(C)C(=O)c1ccc(CNC(=O)c2ccc(NC(=O)C3CC(c4cccnc4)=NO3)cc2)cc1 (centres unmarked) [Compound 426] | 65%
O=C(Nc1ccc(C(=NO)c2cccc(OC(F)(F)F)c2)cc1)C1CC(c2cccnc2)=NO1 (centres unmarked) [Compound 430] | 67%
O=C(Nc1ccc(C(=NO)c2c(F)cccc2F)cc1)C1CC(c2cccnc2)=NO1 (centres unmarked) [Compound 431] | 71%
